Read-outs that look alike come from different tables or passages of the source.
Legend:
[1] = system: leukotriene C4-induced contraction of guinea pig peripheral strips; assay: SRS-A (slow-reacting substance of anaphylaxis) antagonists, leukotriene C4-induced contraction of guinea pig peripheral lung strips; format: cell-based; parameters: key to SRS-A degree of inhibitory activity: I: inactive; L: low activity; M: moderate activity; H: high activity; conditions: for IC50: Cavia porcellus, 0.2 nM leukotriene C4, 37° C., read-out: SRS-A I50 (concentration required for 50% inhibition of 0.2 nM leukotriene C4-induced contraction); for SRS-A degree of inhibitory activity: 0.2 nM leukotriene C4, class symbol in the SRS-A I50 column
Experimental: Leukotrienes, the products of the 5-lipoxygenase pathway of arachidonic acid metabolism, are potent contractile agents with a variety of smooth muscle preparations. […] The following protocol describes an in vitro assay used to test compounds which specifically antagonize the actions of leukotrienes.
Peripheral strips of guinea pig lungs are prepared and hung in tissue baths (Metro # ME-5505, 10 ml) according to the published procedure (Proc. Nat'l Acad. Sci, U.S.A. Volume 77, pp. 4354-4358, 1980). The strips are thoroughly rinsed in Assay Buffer and then connected with surgical silk thread to the support rods from the tissue baths. The rods are adjusted in the baths and the strips connected to the pressure transducers (Grass FT 103 or Gould UC-3). The tissue baths are aerated with 95% oxygen-5% carbon dioxide and maintained at 37° C. The Assay Buffer has been made as follows: For each liter of buffer the following are added to approximately 800 ml of water distilled in glass--6.87 g. NaCl, 0.4 g. KCl, 2.1 g. NaHCO3, 0.14 g, NaH2 PO4.H2 O, 0.21 g. MgSO4.7H2 O, and 2.0 g. D-glucose. Then a solution of 0.368 g. CaCl2.2H2 O in 100 ml glass-distilled water is slowly added to the buffer. Sufficient water is added to adjust the volume to one liter, and the solution is aerated with 95% oxygen-5% carbon dioxide. Usually 10 liters of buffer are used for an experiment with 4 tissues.
After the tissues have been repeatedly washed and allowed to equilibrate in the tissue bath, they are challenged with 1 uM histamine. After maximum contractions have been obtained, the tissues are washed, and allowed to relax back to baseline tension. This histamine challenge procedure is repeated at least 1 to 2 more times to obtain a repeatable control response. The average response to 1 uM histamine for each tissue is used to normalize all other challenges.
Responses of each tissue to a pre-determined concentration of leukotriene are then obtained. Usually test compounds are examined initially at 30 uM on resting tension of the tissues without any added agonist or antagonist to determine if the compound has any possible intrinsic activity. The tissues are washed, and the test compound is added again. Leukotriene is added after the desired pre-incubation time. The intrinsic activity of the compounds, and their effect on leukotriene-induced contractions are then recorded.
The concentration required for 50% inhibition of 0.2 nM leukotriene C4 -induced contraction of guinea pig peripheral strips or degree of inhibitory activity for representative compounds of the present invention is shown in Table I denoted by SRS-A.

5-lipoxygenase pathway = assay: Inhibitors of the Lipoxygenase Pathway (LOX), [14C]-5-HETE formation in rat neutrophils; format: cell-based; parameters: key to LOX degree of activity: I: inactive; L: low activity; M: moderate activity; H: high activity; conditions: for IC50: Neutrophil; for LOX degree of activity: class symbol in the LOX I50 column
Experimental: The following protocol describes an assay to detect inhibitors of the lipoxygenase pathway. Such inhibitors are believed to be capable of modulating the biosynthesis of the leukotrienes, a property believed to be useful in treating asthma and inflammatory disease states.
A suspension of rat neutrophils in buffer is incubated for 3 minutes at 30° C. with [^14 C]-arachidonic acid (AA) and Calcium Ionophore A23187. Citric Acid (2M) is used to quench the reaction. Following the addition of a trace amount of (^3 H)-5-HETE together with an excess of unlabeled 5-HETE to each tube, the mixture is extracted with chloroform/methanol. The organic layer is washed with dilute acid and an aliquot is transferred to glass tubes and dried. The residue is dissolved in a small volume of chloroform and an aliquot is spotted on silica gel TLC sheets, which are developed with an ethyl acetate/isoctane/water/acetic acid solvent system. The 5-HETE spots are visualized with iodine, cut out and placed in scintillation vials for counting. After adjusting for the extraction efficiency, the amount (pmole) of [^14 C]-5-HETE in each of the tubes is quantitated. The net pmoles of 5-HETE are obtained by substracting the pmoles of 5-HETE in the tubes containing buffer alone (blank) for the pmoles of 5-HETE in the tubes containing […]. The ability of the test compounds to modulate the activity of this enzyme is determined by a decrease or increase in the net amount of 5-HETE produced.

[2] = system: SRS-A (slow reacting substances of anaphylaxis), anaphylactic bronchoconstriction in guinea pigs; assay: in vivo modulators of SRS-A: Bronchial Anaphylaxis in Guinea Pigs with Enhanced Leukotrines (BAGEL); parameters: species or system guinea pig; key: I: inactive; L: low activity; M: moderate activity; H: high activity; conditions: 15 min before ovalbumin challenge
Experimental: Representative compounds of the present invention were also tested in the following in vivo model.
This test, known as the Bronchial Anaphylaxis in Guinea Pigs with Enhanced Leukotrines (BAGEL), is based on the procedure published in Agents and Actions, Vol. 11, pp. 396-401, 1981, and is performed with guinea pigs actively immunized (14 days) with ovalbumin (2.7 mg/kg, i.p.) and B.pertussis (5×10^9 organisms) as an adjuvant. Prior to challenge with antigen (ovalbumin), the animals are anesthetized and prepared for monitoring pulmonary dynamics by whole body plethysmography. They are treated with an H1 antihistamine (methapyrilene, 2 mg/kg, i.v.) and cyclooxygenase inhibitor (indomethacin; 20 mg/kg, i.p.) in order to enhance the SRS-A component of anaphylactic bronchoconstriction. Bronchoconstriction is quantified as the maximum increase in airway resistance following antigen challenge. The drug is administered either i.p. 10 minutes before challenge, or i.d. 15 minutes before challenge.

[3] = system: Human PMN (5-lipoxygenase pathway); assay: LOX, Human PMN; format: cell-based; parameters: key to LOX degree of activity, Human PMN: I: inactive; L: low activity; M: moderate activity; H: high activity
[4] = arachidonic acid + Ca ionophore A23187, 30° C., read-out: LOX I50 (concentration required for 50% inhibition of the 5-lipoxygenase pathway)

| SMILES | IC50 [1] | IC50 (5-lipoxygenase pathway; [4]) | SRS-A degree of inhibitory activity [1] | LOX degree of activity (5-lipoxygenase pathway) | also measured |
| --- | --- | --- | --- | --- | --- |
| O=C(C=C1CSc2ccccc2N1)Nc1ccccc1 | 18 µM | 1.6 µM |  |  |  |
| CCOC(=O)C=C1CSc2ccccc2N1 |  |  | M | I |  |
| CCOC(=O)C(Cl)=C1CSc2ncccc2N1 | 20 µM | 1.2 µM |  |  | BAGEL activity ([2]; 200 mg/kg i.d.): M-H; IC50 ([3]; Homo sapiens, read-out: LOX I50, Human PMN): 1 µM |
| CCOC(=O)c1c2csc3ccccc3n-2c(=O)c1O |  | 12 µM | I |  |  |
| CCOC(=O)C=C(C(=O)OCC)C(C(=O)OCC)=C1CSc2ccccc2N1 |  |  | I |  | BAGEL activity ([2]; 30 mg/kg i.d.): H; LOX degree of activity, Human PMN ([3]; Human PMN, 135 μM): L; IC50 (5-lipoxygenase pathway; cell prints 3μ .M, read-out: LOX I50, unit printed in the cell): 3 µM |
| O=C(C=C1CSc2ccccc2N1)Nc1ccccc1Cl |  |  |  | M |  |
| CCOC(=O)C(Cl)=C1CSc2ccccc2N1 |  | 1.7 µM | M |  | BAGEL activity ([2]; 200 mg/kg i.d.): L |
| N#CC(C(N)=O)=C1CSc2ccccc2N1 | 25 µM |  |  | I |  |

Source: US4576942A, “Anti-allergic and anti-inflammatory bi- and tri- cyclo-1,4-thiazine derivatives, composition, and method of use therefor” (USV Pharmaceutical Corp., priority 1984, dated 1986)
